Laboratory results taken from ChEMBL document CHEMBL3603789, “N-Lipidated Peptide Dimers: Effective Antibacterial Agents against Gram-Negative Pathogens through Lipopolysaccharide Permeabilization” (J Med Chem, 2015).
≈ marks a conversion by molar mass, not a printed value. Each block holds one compound with its values, some of them ahead of it. Calls of active or inactive are those of the source. The rule behind the calls is not given here. Bridge positions count the residues as written; N and C are the ends. Peptide text beside a SMILES is read from it. I, II: the chains in the order shown. * marks the point of attachment. Palmitoyl = CCCCCCCCCCCCCCCC(=O)*; Octanoyl = CCCCCCCC(=O)*

Experiments:
Pseudomonas aeruginosa [1] = assay: Antibacterial activity against Pseudomonas aeruginosa DR18531 after 24 hrs by broth microdilution method; assay type: functional; settings: DR18531, 24 h
Pseudomonas aeruginosa [2] = assay: Antibacterial activity against Pseudomonas aeruginosa DM4150R after 24 hrs by broth microdilution method; assay type: functional
Pseudomonas aeruginosa [3] = assay: Antibacterial activity against Pseudomonas aeruginosa DM23257 after 24 hrs by broth microdilution method; assay type: functional; settings: DM23257, 24 h
Pseudomonas aeruginosa [4] = assay: Antibacterial activity against Pseudomonas aeruginosa DM23376 after 24 hrs by broth microdilution method; assay type: functional; settings: DM23376, 24 h
Pseudomonas aeruginosa [5] = assay: Antibacterial activity against Pseudomonas aeruginosa DU14476 after 24 hrs by broth microdilution method; assay type: functional; settings: DU14476, 24 h
Pseudomonas aeruginosa [6] = assay: Antibacterial activity against Pseudomonas aeruginosa DR5790 after 24 hrs by broth microdilution method; assay type: functional; settings: DR5790, 24 h
Pseudomonas aeruginosa [7] = assay: Antibacterial activity against Pseudomonas aeruginosa DR4877 after 24 hrs by broth microdilution method; assay type: functional; settings: DR4877, 24 h
Pseudomonas aeruginosa [8] = assay: Antibacterial activity against Pseudomonas aeruginosa ATCC 9027 after 24 hrs by broth microdilution method; assay type: functional; settings: ATCC 9027, 24 h
Pseudomonas aeruginosa [9] = assay: Antibacterial activity against Pseudomonas aeruginosa ATCC 27853 after 24 hrs by broth microdilution method; assay type: functional; settings: ATCC 27853, 24 h
[10] = Toxicity in New Zealand white rabbit erythrocytes assessed as hemolytic activity after 60 mins; assay type: cell-based, Oryctolagus cuniculus; settings: erythrocyte, 1 h
Klebsiella pneumoniae [11] = assay: Antibacterial activity against Klebsiella pneumoniae DM4299 after 24 hrs by broth microdilution method; assay type: functional; settings: DM4299, 24 h
Pseudomonas aeruginosa [12] = assay: Antibacterial activity against Pseudomonas aeruginosa DM23155 after 24 hrs by broth microdilution method; assay type: functional; settings: DM23155, 24 h
Escherichia coli [13] = assay: Antibacterial activity against Escherichia coli ATCC 25922 after 24 hrs by broth microdilution method; assay type: functional; settings: ATCC 25922, 24 h
[14] = Self-aggregation activity of the compound using 8-(Phenylamino)-1-naphthalenesulfonic acid as fluorescent probe at 300 uM by fluorescence assay; assay type: physicochemical
[15] = Self-aggregation activity of the compound using 8-(Phenylamino)-1-naphthalenesulfonic acid as fluorescent probe at 20 uM by fluorescence assay; assay type: physicochemical
[16] = Self-aggregation activity of the compound using 8-(Phenylamino)-1-naphthalenesulfonic acid as fluorescent probe at 100 uM by fluorescence assay; assay type: physicochemical
[17] = Self-aggregation activity of the compound using 8-(Phenylamino)-1-naphthalenesulfonic acid as fluorescent probe at 300 uM by fluorescence assay in presence of 150 mM of NaCl; assay type: physicochemical
Lipopolysaccharide (LPS) [18] = assay: Displacement of dansylcadaverine from Escherichia coli 0111:B4 LPS at 15 to 30 uM after 5 mins by high-throughput fluorescence displacement assay
Lipopolysaccharide (LPS) [19] = assay: Induction of Escherichia coli 0111:B4 LPS neutralization using p-nitroaniline assessed as concentration required to neutralize 50% after 1 hr by limulus amebocyte lysate assay
Pseudomonas aeruginosa [20] = assay: Induction of 1-N-phenylnaphthylamine uptake in Pseudomonas aeruginosa DM23155 at 400 uM after 1 hr by fluorescence assay relative to polymyxin B; assay type: functional
[21] = Induction of calcein leakage from DOPC artificial membrane at 1:32 ratio of compound to lipid by fluorescence assay; assay type: physicochemical
Pseudomonas aeruginosa [22] = assay: Induction of cytoplasmic membrane depolarization in Pseudomonas aeruginosa DM23155 at 4 times MIC after 1 hr by fluorescence assay; assay type: functional, organism-based
Escherichia coli [23] = assay: Antibacterial activity against Escherichia coli DS17232 after 24 hrs by broth microdilution method; assay type: functional; settings: DS17232, 24 h
Escherichia coli [24] = assay: Antibacterial activity against Escherichia coli DM17528 after 24 hrs by broth microdilution method; assay type: functional; settings: DM17528, 24 h
Klebsiella pneumoniae [25] = assay: Antibacterial activity against Klebsiella pneumoniae DS07955 after 24 hrs by broth microdilution method; assay type: functional; settings: DS07955, 24 h
Klebsiella pneumoniae [26] = assay: Antibacterial activity against Klebsiella pneumoniae DS16260 after 24 hrs by broth microdilution method; assay type: functional; settings: DS16260, 24 h
Klebsiella pneumoniae [27] = assay: Antibacterial activity against Klebsiella pneumoniae DU31158 after 24 hrs by broth microdilution method; assay type: functional; settings: DU31158, 24 h
Klebsiella pneumoniae [28] = assay: Antibacterial activity against Klebsiella pneumoniae DB55301 after 24 hrs by broth microdilution method; assay type: functional; settings: DB55301, 24 h

Structure (SMILES): COc1c(N2CCNC(C)C2)c(F)cc2c(=O)c(C(=O)O)cn(C3CC3)c12 (stereo unspecified) [GATIFLOXACIN]
MIC (Pseudomonas aeruginosa [1]): 8 µM (≈ 3 µg/mL)
MIC (Pseudomonas aeruginosa [2]): 2 µM (≈ 0.751 µg/mL)
MIC (Pseudomonas aeruginosa [3]): 2 µM (≈ 0.751 µg/mL)
MIC (Pseudomonas aeruginosa [4]): 4 µM (≈ 1.5 µg/mL)
MIC (Pseudomonas aeruginosa [5]): 64 µM (≈ 24 µg/mL)
MIC (Pseudomonas aeruginosa [6]): 64 µM (≈ 24 µg/mL)
MIC (Pseudomonas aeruginosa [7]): 32 µM (≈ 12 µg/mL)
MIC (Pseudomonas aeruginosa [8]): 2 µM (≈ 0.751 µg/mL)
MIC (Pseudomonas aeruginosa [9]): 4 µM (≈ 1.5 µg/mL)

Structure (SMILES): CCCCCCCCCCCCCCCC(=O)N[C@@H](CCCNC(=N)N)C(=O)NCC(=O)N[C@@H](CCCNC(=N)N)C(=O)N[C@@H](CCCCN)C(=O)NCC(=O)NCC(=O)N[C@@H](CCCNC(=N)N)C(=O)N[C@@H](CCCNC(=N)N)C(=O)NCCCC[C@H](NC(=O)[C@H](CCCNC(=N)N)NC(=O)[C@H](CCCNC(=N)N)NC(=O)CNC(=O)CNC(=O)[C@H](CCCCN)NC(=O)[C@H](CCCNC(=N)N)NC(=O)CNC(=O)[C@H](CCCNC(=N)N)NC(=O)CCCCCCCCCCCCCCC)C(=O)N[C@@H](CCCCN)C(=O)O (I: Palmitoyl-RGRKGGRRKK-OH / II: Palmitoyl-RGRKGGRR; amide I:9-II:C)
HC10 [10]: 64 µg/mL
MIC (Klebsiella pneumoniae [11]): 10 µM (≈ 26 µg/mL)
MIC (Pseudomonas aeruginosa [12]): 10 µM (≈ 26 µg/mL)
MIC (Escherichia coli [13]): 10 µM (≈ 26 µg/mL)
Activity [15]: 50%
Activity [16]: 50%
Activity [17]: Active
Activity (Lipopolysaccharide (LPS) [18]): 106%
EC50 (Lipopolysaccharide (LPS) [19]): 43 µM
Activity (Pseudomonas aeruginosa [20]): 36.5%
Activity [21]: Active

Second part, led by results:

MIC (Klebsiella pneumoniae [11]): 40 µM (≈ 60.8 µg/mL)
MIC (Pseudomonas aeruginosa [12]): 80 µM (≈ 122 µg/mL)
MIC (Escherichia coli [13]): 10 µM (≈ 15.2 µg/mL)
Activity [14]: Not Active
Structure (SMILES): CCCCCCCCCCCCCCCC(=O)N[C@@H](CCCNC(=N)N)C(=O)NCC(=O)N[C@@H](CCCNC(=N)N)C(=O)N[C@@H](CCCCN)C(=O)N[C@H](C(=O)N[C@H](C(=O)N[C@@H](CCCNC(=N)N)C(=O)N[C@@H](CCCNC(=N)N)C(=O)N[C@@H](CCCCN)C(=O)N[C@@H](CCCCN)C(=O)O)C(C)C)C(C)C (Palmitoyl-RGRKVVRRKK-OH)
HC10 [10]: 5481 µg/mL

MIC (Klebsiella pneumoniae [11]): 40 µM (≈ 53 µg/mL)
MIC (Pseudomonas aeruginosa [12]): 10 µM (≈ 13.2 µg/mL)
MIC (Escherichia coli [13]): 6 µM (≈ 7.95 µg/mL)
Structure (SMILES): CCCCCCCC(=O)N[C@@H](CCCNC(=N)N)C(=O)NCC(=O)N[C@@H](CCCNC(=N)N)C(=O)N[C@@H](CCCCN)C(=O)NCC(=O)NCC(=O)N[C@@H](CCCNC(=N)N)C(=O)N[C@@H](CCCNC(=N)N)C(=O)N[C@@H](CCCCN)C(=O)N[C@@H](CCCCN)C(=O)O (Octanoyl-RGRKGGRRKK-OH)
HC10 [10]: > 10000 µg/mL
Activity (Pseudomonas aeruginosa [22]): Active

MIC (Escherichia coli [23]): 20 µM (≈ 7.23 µg/mL)
MIC (Escherichia coli [24]): 80 µM (≈ 28.9 µg/mL)
MIC (Klebsiella pneumoniae [25]): > 100 µM
MIC (Klebsiella pneumoniae [26]): 10 µM (≈ 3.61 µg/mL)
MIC (Klebsiella pneumoniae [27]): 0.03 µM (≈ 0.0108 µg/mL)
MIC (Klebsiella pneumoniae [28]): 80 µM (≈ 28.9 µg/mL)
Structure (SMILES): C[C@H]1COc2c(N3CCN(C)CC3)c(F)cc3c(=O)c(C(=O)O)cn1c23 [LEVOFLOXACIN]
